pKi: −log10 of the molar value.
Biological target: Histamine H4 receptor (Homo sapiens, UniProt Q9H3N8)
Experiment: Radioligand Binding Assay
Conditions: pH 7.5; 25 °C
Procedure: The Ki values were calculated based on an experimentally determined appropriate Kd value according to Cheng and Prusoff.

Chain of Histamine H4 receptor (Q9H3N8 whole entry): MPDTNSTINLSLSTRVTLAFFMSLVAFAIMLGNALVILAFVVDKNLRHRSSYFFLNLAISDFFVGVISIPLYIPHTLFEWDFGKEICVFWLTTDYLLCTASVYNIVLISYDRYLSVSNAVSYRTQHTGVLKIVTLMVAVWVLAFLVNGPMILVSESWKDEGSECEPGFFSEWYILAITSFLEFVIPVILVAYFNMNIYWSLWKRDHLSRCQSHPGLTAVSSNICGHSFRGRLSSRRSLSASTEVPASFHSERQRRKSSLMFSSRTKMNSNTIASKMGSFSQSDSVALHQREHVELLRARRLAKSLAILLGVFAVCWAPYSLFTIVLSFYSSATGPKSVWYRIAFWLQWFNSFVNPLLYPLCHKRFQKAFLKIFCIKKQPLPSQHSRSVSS

`CN1CCN(CCCOc2ccc(-c3nc4cc(Cl)ccc4[nH]3)cc2)CC1` [5-chloro-2-{4-[3-(4-methylpiperazin-1-yl)propoxy]phenyl}-1H-1,3-benzodiazole] gave a pKi of 6.91.

Source: BindingDB's records for doi:10.1016/j.bmcl.2006.08.117 (Johnson & Johnson Pharmaceutical, 2006)
